{
  "source": "patent US9422254B2",
  "about": "“Methoxyacrylate-based fungicide and methods for preparing and using the same” (priority 2008, dated 2016)",
  "test_in_all_cases": "In vitro inhibition, pathogens from tropical plants",
  "format_in_all_cases": "cell-based",
  "key": {"[1]": {"tested_on": "Colletotrichum gloeosporioides (second entry, r74)", "conditions": "read-out: Inhibition rate (%)", "procedure": "(§1) 5 wt % formulation of the active compound of Formula (I) was prepared into a solution (300 mg/L). To a sterilized Erlenmeyer flask, 2 mL of the solution and 18 mL of PDA culture medium (50° C.) were added. The mixture was shaken uniformly and dumped into two dishes whose diameter was 9 cm to yield two toxic PDA culture mediums having a concentration of 30 mg/L. Various cultured pathogens were punched at the edge of colony by a puncher having a diameter of 5 mm respectively, and the obtained pieces were transferred to the center of the toxic PDA culture medium by an inoculating needle and cultured in an incubator at 25° C. Repeat the above steps. According to the growth status of CK colony, the colony diameter of pathogens was measured by crossing method with a caliper and thereby a corrected inhibition percentage was calculated.\n(§2) For each colony, diameter was measured twice by crossing method and the average was practicable. The colony growth inhibition rate was calculated as follows: Colony growth inhibition rate %=(diameter of CK colony−diameter of target colony)×100/diameter of CK colony\n(§3) Following the above method, as targets 17 pathogens originated from tropical plants were tested. The pathogens were Rhizopus sp., Aspergillus, Colletotrichum gloeosporioides Penz, Banana Fusarium wilt, Colletouichum coccodes, Hughas, B. heveas, Cucumber mosaic virusstrain banana, Banana Sigatoka Leaf Spot Disease, Colletotrichum gloeosporioides, Colletotrichum musae (Berk & Curt) Arx, Botryodiplodia theobromae, Cladosporium cucumerinum Ellis et Arthur, Periconia hevenae, Colletotrichum gloeosporioides, B. cinerea, Diplodia natalensis, and Curvularia."}, "[2]": {"tested_on": "Colletotrichum gloeosporioides Penz", "procedure": "as §1, §2, §3"}, "[3]": {"tested_on": "Colletotrichum musae (Berk & Curt) Arx", "procedure": "as §1, §2, §3"}, "[4]": {"tested_on": "Colletouichum coccodes. Hughas", "procedure": "as §1, §2, §3"}, "[5]": {"tested_on": "Cucumber mosaic virusstrain banana", "procedure": "as §1, §2, §3"}, "[6]": {"tested_on": "Curvularia", "procedure": "as §1, §2, §3"}, "[7]": {"tested_on": "Diplodia natalensis", "procedure": "as §1, §2, §3"}, "[8]": {"tested_on": "Periconia hevenae", "procedure": "as §1, §2, §3"}, "[9]": {"tested_on": "Rhizopus sp.", "procedure": "as §1, §2, §3"}, "[10]": {"conditions": "0.1 mg/L, read-out: Inhibition rate (%)"}, "[11]": {"conditions": "1 mg/L, read-out: Inhibition rate (%)"}, "[12]": {"conditions": "5 mg/L, read-out: Inhibition rate (%)"}, "[13]": {"conditions": "10 mg/L, read-out: Inhibition rate (%)"}, "[14]": {"conditions": "25 mg/L, read-out: Inhibition rate (%)"}, "[15]": {"conditions": "20 mg/L, read-out: Inhibition rate (%)"}, "[16]": {"conditions": "15 mg/L, read-out: Inhibition rate (%)"}},
  "data": [
    {"molecule": "CO/C=C(/C(=O)OC)c1ccccc1CSc1nc2cc(OC)ccc2s1", "note": "[Compound of Formula (I), (E)-methyl 3-methoxy-2-(2-((5-methoxy-benzothiazol-2-ylthio)methyl)phenyl)acrylate]", "values": [
      {"measurement": "inhibition at 0.1 µg/mL", "setting": "[1]; 0.1 mg/L", "value": 7.12, "unit": "%"},
      {"measurement": "inhibition at 1 µg/mL", "setting": "[1]; 1 mg/L", "value": 19.3, "unit": "%"},
      {"measurement": "inhibition at 5 µg/mL", "setting": "[1]; 5 mg/L", "value": 33.8, "unit": "%"},
      {"measurement": "inhibition at 10 µg/mL", "setting": "[1]; 10 mg/L", "value": 55.2, "unit": "%"},
      {"measurement": "inhibition at 20 µg/mL", "setting": "[1]; 20 mg/L", "value": 87.2, "unit": "%"},
      {"measurement": "EC50", "setting": "[2]", "value": 4.63, "unit": "µg/mL"},
      {"measurement": "inhibition at 0.1 µg/mL", "setting": "[2]; [10]", "value": 16.7, "unit": "%"},
      {"measurement": "inhibition at 1 µg/mL", "setting": "[2]; [11]", "value": 31.1, "unit": "%"},
      {"measurement": "inhibition at 5 µg/mL", "setting": "[2]; [12]", "value": 50.2, "unit": "%"},
      {"measurement": "inhibition at 10 µg/mL", "setting": "[2]; [13]", "value": 54.9, "unit": "%"},
      {"measurement": "inhibition at 25 µg/mL", "setting": "[2]; [14]", "value": 69.3, "unit": "%"},
      {"measurement": "inhibition at 50 µg/mL", "setting": "[2]; 50 mg/L, read-out: Inhibition rate (%)", "value": 80.9, "unit": "%"},
      {"measurement": "EC50", "setting": "[3]", "value": 1.66, "unit": "µg/mL"},
      {"measurement": "inhibition at 0.1 µg/mL", "setting": "[3]; [10]", "value": 19.1, "unit": "%"},
      {"measurement": "inhibition at 1 µg/mL", "setting": "[3]; [11]", "value": 37.2, "unit": "%"},
      {"measurement": "inhibition at 5 µg/mL", "setting": "[3]; [12]", "value": 64.5, "unit": "%"},
      {"measurement": "inhibition at 10 µg/mL", "setting": "[3]; [13]", "value": 78.7, "unit": "%"},
      {"measurement": "inhibition at 20 µg/mL", "setting": "[3]; [15]", "value": 85.8, "unit": "%"},
      {"measurement": "EC50", "setting": "[4]", "value": 7.13, "unit": "µg/mL"},
      {"measurement": "inhibition at 0.1 µg/mL", "setting": "[4]; [10]", "value": 10.1, "unit": "%"},
      {"measurement": "inhibition at 2 µg/mL", "setting": "[4]; 2 mg/L, read-out: Inhibition rate (%)", "value": 22.3, "unit": "%"},
      {"measurement": "inhibition at 5 µg/mL", "setting": "[4]; [12]", "value": 42.1, "unit": "%"},
      {"measurement": "inhibition at 15 µg/mL", "setting": "[4]; [16]", "value": 61.3, "unit": "%"},
      {"measurement": "inhibition at 25 µg/mL", "setting": "[4]; [14]", "value": 83.5, "unit": "%"},
      {"measurement": "EC50", "setting": "[5]", "value": 1.92, "unit": "µg/mL"},
      {"measurement": "inhibition at 0.1 µg/mL", "setting": "[5]; [10]", "value": 9.84, "unit": "%"},
      {"measurement": "inhibition at 1 µg/mL", "setting": "[5]; [11]", "value": 40.2, "unit": "%"},
      {"measurement": "inhibition at 5 µg/mL", "setting": "[5]; [12]", "value": 62.3, "unit": "%"},
      {"measurement": "inhibition at 10 µg/mL", "setting": "[5]; [13]", "value": 76.6, "unit": "%"},
      {"measurement": "inhibition at 15 µg/mL", "setting": "[5]; [16]", "value": 84.8, "unit": "%"},
      {"measurement": "EC50", "setting": "[6]", "value": 0.505, "unit": "µg/mL"},
      {"measurement": "inhibition at 0.1 µg/mL", "setting": "[6]; [10]", "value": 28.8, "unit": "%"},
      {"measurement": "inhibition at 1 µg/mL", "setting": "[6]; [11]", "value": 63.5, "unit": "%"},
      {"measurement": "inhibition at 5 µg/mL", "setting": "[6]; [12]", "value": 75.9, "unit": "%"},
      {"measurement": "inhibition at 10 µg/mL", "setting": "[6]; [13]", "value": 76.6, "unit": "%"},
      {"measurement": "inhibition at 15 µg/mL", "setting": "[6]; [16]", "value": 80.6, "unit": "%"},
      {"measurement": "EC50", "setting": "[7]", "value": 1.7, "unit": "µg/mL"},
      {"measurement": "inhibition at 0.1 µg/mL", "setting": "[7]; [10]", "value": 20.7, "unit": "%"},
      {"measurement": "inhibition at 1 µg/mL", "setting": "[7]; [11]", "value": 40.2, "unit": "%"},
      {"measurement": "inhibition at 5 µg/mL", "setting": "[7]; [12]", "value": 60.7, "unit": "%"},
      {"measurement": "inhibition at 10 µg/mL", "setting": "[7]; [13]", "value": 73.7, "unit": "%"},
      {"measurement": "inhibition at 20 µg/mL", "setting": "[7]; [15]", "value": 82.3, "unit": "%"},
      {"measurement": "EC50", "setting": "[8]", "value": 0.378, "unit": "µg/mL"},
      {"measurement": "inhibition at 0.1 µg/mL", "setting": "[8]; [10]", "value": 33.2, "unit": "%"},
      {"measurement": "inhibition at 1 µg/mL", "setting": "[8]; [11]", "value": 66.4, "unit": "%"},
      {"measurement": "inhibition at 5 µg/mL", "setting": "[8]; [12]", "value": 74.2, "unit": "%"},
      {"measurement": "inhibition at 10 µg/mL", "setting": "[8]; [13]", "value": 77.6, "unit": "%"},
      {"measurement": "inhibition at 15 µg/mL", "setting": "[8]; [16]", "value": 81.7, "unit": "%"},
      {"measurement": "EC50", "setting": "[9]", "value": 4.18, "unit": "µg/mL"},
      {"measurement": "inhibition at 1 µg/mL", "setting": "[9]; [11]", "value": 18.4, "unit": "%"},
      {"measurement": "inhibition at 5 µg/mL", "setting": "[9]; [12]", "value": 53.1, "unit": "%"},
      {"measurement": "inhibition at 10 µg/mL", "setting": "[9]; [13]", "value": 69.3, "unit": "%"},
      {"measurement": "inhibition at 15 µg/mL", "setting": "[9]; [16]", "value": 83.6, "unit": "%"},
      {"measurement": "inhibition at 20 µg/mL", "setting": "[9]; [15]", "value": 88.5, "unit": "%"}
    ]}
  ]
}
